Measurements reported in PubChem BioAssay (NCI).
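96-well plates; 48 h exposure; 5 concentrations. Endpoints by linear interpolation between flanking doses. Not reached: highest tested concentration assigned. GI50 is the concentration that inhibits growth by half. TGI marks complete inhibition of growth.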

Key:
Experiment in all cases: growth of human tumour cells (NCI), 48 h
NCI-H460 lung = system: NCI-H460 lung
NCI-H522 lung = system: NCI-H522 lung
NCI/ADR-RES ovarian = system: NCI/ADR-RES ovarian
OVCAR-3 ovarian = system: OVCAR-3 ovarian
OVCAR-4 ovarian = system: OVCAR-4 ovarian
OVCAR-5 ovarian = system: OVCAR-5 ovarian
OVCAR-8 ovarian = system: OVCAR-8 ovarian
PC-3 prostate = system: PC-3 prostate
RPMI-8226 leukemia = system: RPMI-8226 leukemia
SF-268 CNS = system: SF-268 CNS
SF-295 CNS = system: SF-295 CNS
SF-539 CNS = system: SF-539 CNS
SK-MEL-2 melanoma = system: SK-MEL-2 melanoma
SK-MEL-28 melanoma = system: SK-MEL-28 melanoma
SK-MEL-5 melanoma = system: SK-MEL-5 melanoma
SK-OV-3 ovarian = system: SK-OV-3 ovarian
SNB-19 CNS = system: SNB-19 CNS
SNB-75 CNS = system: SNB-75 CNS
SW-620 colon = system: SW-620 colon
T-47D breast = system: T-47D breast
TK-10 renal = system: TK-10 renal
U251 CNS = system: U251 CNS
UACC-257 melanoma = system: UACC-257 melanoma
UACC-62 melanoma = system: UACC-62 melanoma
UO-31 renal = system: UO-31 renal

SMILES: COc1cc(S(=O)(=O)Nc2ccc(C3=NNC(c4ccccc4)C3)cc2)ccc1F (centres undefined)
- GI50 (NCI-H460 lung): 32.3 µM
- TGI (NCI-H460 lung): > 100 µM
- GI50 (NCI-H522 lung): 38 µM
- TGI (NCI-H522 lung): > 100 µM
- GI50 (NCI/ADR-RES ovarian): 36.3 µM
- TGI (NCI/ADR-RES ovarian): > 100 µM
- GI50 (OVCAR-3 ovarian): 50.3 µM
- TGI (OVCAR-3 ovarian): > 100 µM
- GI50 (OVCAR-4 ovarian): 50.6 µM
- TGI (OVCAR-4 ovarian): > 100 µM
- GI50 (OVCAR-5 ovarian): 66.8 µM
- TGI (OVCAR-5 ovarian): > 100 µM
- GI50 (OVCAR-8 ovarian): 68.1 µM
- TGI (OVCAR-8 ovarian): > 100 µM
- GI50 (PC-3 prostate): 29.8 µM
- TGI (PC-3 prostate): > 100 µM
- GI50 (RPMI-8226 leukemia): 21.6 µM
- TGI (RPMI-8226 leukemia): 73.1 µM
- GI50 (SF-268 CNS): 65.1 µM
- TGI (SF-268 CNS): > 100 µM
- GI50 (SF-295 CNS): 28.5 µM
- TGI (SF-295 CNS): > 100 µM
- GI50 (SF-539 CNS): 40 µM
- TGI (SF-539 CNS): > 100 µM
- GI50 (SK-MEL-2 melanoma): > 100 µM
- TGI (SK-MEL-2 melanoma): > 100 µM
- GI50 (SK-MEL-28 melanoma): > 100 µM
- TGI (SK-MEL-28 melanoma): > 100 µM
- GI50 (SK-MEL-5 melanoma): 13.9 µM
- TGI (SK-MEL-5 melanoma): 31.6 µM
- GI50 (SK-OV-3 ovarian): > 100 µM
- TGI (SK-OV-3 ovarian): > 100 µM
- GI50 (SNB-19 CNS): > 100 µM
- TGI (SNB-19 CNS): > 100 µM
- GI50 (SNB-75 CNS): 23.9 µM
- TGI (SNB-75 CNS): > 100 µM
- GI50 (SW-620 colon): 44.4 µM
- TGI (SW-620 colon): > 100 µM
- GI50 (T-47D breast): 54.2 µM
- TGI (T-47D breast): > 100 µM
- GI50 (TK-10 renal): 13.9 µM
- TGI (TK-10 renal): 54.7 µM
- GI50 (U251 CNS): 43.5 µM
- TGI (U251 CNS): > 100 µM
- GI50 (UACC-257 melanoma): 29.3 µM
- TGI (UACC-257 melanoma): > 100 µM
- TGI (UACC-62 melanoma): 45.2 µM
- GI50 (UO-31 renal): > 100 µM
- TGI (UO-31 renal): > 100 µM
